From paper PMC10779433, “Bidirectional Allosteric Coupling between PIP2 Binding and the Pore of the Oncochannel TRPV6” (International Journal of Molecular Sciences, 2024)
Read-outs that look alike come from different tables or passages of the source. Residues, ends and D or L forms follow the SMILES beside them. *: point of attachment. Palmitoyl = CCCCCCCCCCCCCCCC(=O)*

Assays:
TRPV6 WT = target: T1, TRPV6 WT (Homo sapiens, UniProt Q9H1D0); experiment: Whole-cell patch clamp, TRPV6 WT; assay type: cell-based; conditions: for re-activation after washout with DMSO: 0.1 μM cis-22a or 10 μM pal-PIP2 peptide, then diluted DMSO, n=4 each, Figure S6C,D
T1 construct: expressed in transfected cells; host or cells: HEK293 cells, transient transfection
T1 sequence (Q9H1D0 41-765 limits assumed): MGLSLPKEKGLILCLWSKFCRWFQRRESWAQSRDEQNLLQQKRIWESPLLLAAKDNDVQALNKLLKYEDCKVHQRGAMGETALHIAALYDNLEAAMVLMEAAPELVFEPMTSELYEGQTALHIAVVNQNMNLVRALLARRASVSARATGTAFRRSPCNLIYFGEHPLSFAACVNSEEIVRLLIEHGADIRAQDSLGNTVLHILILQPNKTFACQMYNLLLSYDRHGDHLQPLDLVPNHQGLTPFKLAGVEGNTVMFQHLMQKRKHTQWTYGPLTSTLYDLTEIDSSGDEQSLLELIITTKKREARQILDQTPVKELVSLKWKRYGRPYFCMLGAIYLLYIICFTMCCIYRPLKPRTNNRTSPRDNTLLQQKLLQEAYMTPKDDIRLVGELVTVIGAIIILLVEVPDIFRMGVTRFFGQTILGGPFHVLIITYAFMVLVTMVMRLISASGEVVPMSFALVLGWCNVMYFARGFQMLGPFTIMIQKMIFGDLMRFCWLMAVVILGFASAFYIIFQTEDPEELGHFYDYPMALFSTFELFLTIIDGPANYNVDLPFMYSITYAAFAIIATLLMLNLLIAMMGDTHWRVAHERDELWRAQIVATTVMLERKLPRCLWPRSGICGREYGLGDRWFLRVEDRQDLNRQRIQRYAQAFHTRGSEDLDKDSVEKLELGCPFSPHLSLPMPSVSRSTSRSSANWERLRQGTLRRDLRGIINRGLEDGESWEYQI
Source text: N-terminally TagRFP-labeled human TRPV6 (725 aa) was kindly provided by R. Bhardwaj and M. Hediger (University of Bern, Bern, Switzerland). This variant is translated from the first ATG codon and thus deviates from the non-ATG-initiated protein which is expressed in vivo (accession number NM_018646.6) by lacking 40 amino acids of the very N-terminus. For N-terminal labeling with EYFP, TRPV6 was cloned into pEYFP-C1 (Clontech) via EcoRI and SacII restriction sites. Mutations (F468A, R470A, F472A, K484A/Q, G488R, R492A/Q, I575A, G579A, D580A/K, H582A, W583A/F, H587A, R589A, W593A, R632A/Q, R470A, W583F) were introduced using the QuickChange XL site-directed mutagenesis kit (Stratagene, San Diego, CA, USA) and Pfu DNA Polymerase (Promega, Madison, WI, USA). pTagRFP-hTRPV6 I575A was kindly provided by the lab of M. Hediger (University of Bern, Bern, Switzerland). Forward and reverse primers for site-directed mutagenesis were synthesized by Eurofins genomics GmbH (Wien, Vienna, Austria). Intactness of the constructs in terms of sequence was confirmed by sequencing (Microsynth Austria GmbH, Wien, Vienna, Austria; Eurofins genomics GmbH, Wien, Vienna, Austria). In the present experiments, Tag-RFP-labeled constructs were implemented for NFAT screens, patch clamp measurements, and Fura-2-based Ca^2+ imaging, while for R.Geco1.2 measurements, TRPV6 WT and mutants were used which carried an EYFP label at the N-terminus (pEYFP-C1 vector) to avoid spectral overlap. R.Geco1.2 was purchased from Addgene (No. 45494), and mCherry-CRY2-5ptase OCRL was established in the lab of P. De Camilli and was derived from Addgene (No. 66836), as was CIBN-CAAX (No. 79574). Plasmids encoding for mCerulean3-CRY2-5′ ptase OCRL, YFP-CIBN-CAAX, and the mCherry-tagged PH domain were provided by K. Groschner (Medical University of Graz, Graz, Austria). […] CFP-NFAT (NFATc1, equivalent to NFAT2) was kindly provided by R. Kehlenbach (Scripps Research Institute, La Jolla, CA, USA).
Cultivation of human embryonic kidney (HEK) 293 cells occurred in DMEM supplemented with 10% fetal calf serum, penicillin (100 U/mL), and streptomycin (100 µg/mL) at 37 °C under humidified atmosphere containing 5% CO2. Transient transfection was performed 20–24 h prior to experiments using the TransFectin lipid reagent (Bio-Rad, Hercules, CA, USA), in accordance with the instructions of the supplier. For Ca^2+ imaging using R.Geco1.2, 2 μg of the indicator-encoding plasmid were additionally transfected, while 1 μg plasmid DNA was routinely used per construct in all other cases. For patch clamp experiments, cells were reseeded on poly-L-lysine-coated glass slides at least 4 h prior to experiments. To exclude mycoplasma contaminations, culture supernatants were regularly tested by means of the VenorGem Advanced Mycoplasma Detection kit (VenorGEM, Berlin, Germany).
Electrophysiological experiments were performed at 20 °C to 24 °C in whole-cell recording configurations of the patch clamp technique. A Ag/AgCl electrode was used as a reference electrode. The implemented voltage ramp protocol included a holding potential of +50 mV, wherefrom voltage was ramped from −90 mV to +90 mV within 200 ms with an interval of 5 s between individual ramps. For the time courses, the inward current density at −74 mV was considered. The internal pipette solution contained 145 mM cesium methane sulfonate, 8 mM NaCl, 3.5 mM MgCl2, 10 mM HEPES, and 20 mM EGTA (pH 7.2). For electrophysiological measurements, the basic extracellular solution was composed of 145 mM NaCl, 5 mM CsCl, 1 mM MgCl2, 10 mM HEPES, 10 mM glucose, and 10 mM CaCl2 (pH 7.4). Leak correction of currents was performed by subtracting the residual current after 1 mM La^3+ application at the end of the experiment. The liquid junction potential was determined as 12 mV; the voltages were not adjusted. Clampfit 11.1.0.23 and OriginPro 2020b software were used for data analysis. All experiments were conducted on a minimum of two different days.

TRPV6 F468A = experiment: NFAT screen, TRPV6 F468A; assay type: cell-based, human; conditions: HEK293 cells; 5 μM cis-22a, 2 h; nuclear NFAT already reduced without cis-22a
Protocol: N-terminally TagRFP-labeled human TRPV6 (725 aa) was kindly provided by R. Bhardwaj and M. Hediger (University of Bern, Bern, Switzerland). This variant is translated from the first ATG codon and thus deviates from the non-ATG-initiated protein which is expressed in vivo (accession number NM_018646.6) by lacking 40 amino acids of the very N-terminus. For N-terminal labeling with EYFP, TRPV6 was cloned into pEYFP-C1 (Clontech) via EcoRI and SacII restriction sites. […]
After incubation, cover slips were carefully rinsed with phenol red-free DMEM supplemented with the compound and dosage corresponding to the previous incubation, which was then also present during imaging. […] Subcellular NFAT localization of TRPV6 expressing cells was again monitored on an Axiovert 135 inverted microscope (Zeiss, Oberkochen, Germany), as described in more detail before. […] Images were analyzed using Matlab2018a, differentiating between three cell populations based on the ratio of CFP emission intensity originating from the nucleus and the cytosol, similar to Schober et al. (2019).

| SMILES | re-activation after washout with DMSO (TRPV6 WT; HEK293 cells) | inhibition of current (in words) (TRPV6 WT; HEK293 cells, 10 µM cis-22a, after 0.1 µM, Figure 2D) | inhibition of current (TRPV6 WT; HEK293 cells, 10 μM cis-22a, 10 mM Ca2+, relative to La3+ block, Figure 4C) | reduction of nuclear NFAT localization (TRPV6 F468A) | IC50 (TRPV6 WT) | inhibition at 20 µM (TRPV6 WT; HEK293, read-out: apparent inhibition of current) | inhibition at 10 µM (TRPV6 WT; HEK293, read-out: inhibition of current) | inhibition at 10 µM (TRPV6 WT; HEK293, read-out: mean percentage of inhibition (current)) | inhibition at 10 µM (TRPV6 WT; HEK293, read-out: mean percentage of inhibition (residual current)) | Ca2+ selectivity (TRPV6 WT; HEK293 cells, 10 μM pal-PIP2 peptide, current-voltage relationship, Figure S1D) | reduction of current density (in words) (TRPV6 WT; HEK293 cells, Figure 1C,D, S1B–D) | Hill coefficient of dose–response (TRPV6 WT; HEK293 cells, Hill fit, 0.1 μM to 30 μM) | effect at further increased concentration (TRPV6 WT; HEK293 cells, above 30 μM up to 100 μM, supposedly due to increased DMSO concentration) | maximum inhibition of TRPV6 currents (plateau) (TRPV6 WT; HEK293 cells, plateau from 20 μM on) |
| --- | --- | --- | --- | --- | --- | --- | --- | --- | --- | --- | --- | --- | --- | --- |
| Cc1cccc(C2CCC(N3CCN(c4cccnc4)CC3)CC2)c1.O=C(O)C(F)(F)F (stereo not drawn) [cis-22a] | no re-activation occurred | almost complete block | ~ 98% | further significant reduction in nucleus-targeted NFAT | – | – | – | – | – | – | – | – | – | – |
| CCCCCCCCCCCCCCCC(=O)N[C@@H](Cc1c[nH]cn1)C(=O)N[C@@H](CCCNC(=N)N)C(=O)N[C@@H](CCC(N)=O)C(=O)N[C@@H](CCCCN)C(=O)N[C@@H](Cc1c[nH]cn1)C(=O)N[C@@H](Cc1ccccc1)C(=O)N[C@@H](CCC(=O)O)C(=O)N[C@@H](CCCCN)C(=O)N[C@@H](CCCNC(=N)N)C(=O)N[C@@H](CCCNC(=N)N)C(N)=O [pal-PIP2 peptide] (Palmitoyl-HRQKHFEKRR-NH2) | no re-activation occurred | – | – | – | 4.47 µM | ~63% | ~56% | 51.6% | 54% | remained unchanged | reduced in a dose-dependent manner | 1.95 | rapid membrane rupture or leaky measurements | about 60% |
